“Also recorded” adds a separate entry of the source.
Tests used:
[1] = test system: MOG-specific immunoglobulin responses; assay: MOG-specific immunoglobulin responses in serum, HumanMOG EAE; assay type: in vivo, mouse; settings: oral b.i.d. treatment
From the text: In the HumanMOG-induced EAE model the (auto)antibody response is weakly pathogenic.

[2] = test system: splenocytes and draining lymph node cells; assay: Ex vivo MOG-induced recall proliferation, HumanMOG EAE; set-up: species or system mouse; settings: dosed in vivo
Description: Prophylactic LOU064 (b.i.d.) treatment during HumanMOG EAE inhibits (auto)antigen recall proliferation. Isolated splenocytes and draining lymph node cells were incubated in vitro with HumanMOG for 48 hours. Antigen-specific proliferation was determined by [^3H]-thymidine incorporation. […] Group sizes n=5 per treatment.
Ex vivo MOG-induced recall proliferation responses were studied using isolated splenocytes and draining lymph node cells collected on day 8 post-immunization. […] In contrast, plate-bound anti-CD3/CD28 polyclonal stimulation of lymph node cells was unaffected by the in vivo treatment.

[3] = test system: B-cell and CD4+ T-cell populations; assay: Ex vivo analysis of B-cell and CD4+ T-cell populations, HumanMOG EAE; set-up: species or system mouse; settings: dosed in vivo b.i.d.
From the text: Prophylactic LOU064 (b.i.d.) treatment during HumanMOG EAE reduces Th17 cells. […] Group sizes n=5 per treatment. Statistical significance (ANOVA with Dunnett's test) is shown as *p<0.05.

[4] = test system: MOG-specific immunoglobulin responses; assay: MOG-specific autoantibodies in serum, RatMOG EAE; assay type: in vivo, mouse; settings: 30 mg/kg b.i.d., day 21, vs vehicle
From the text: In immunized mice, treated with either vehicle or LOU064, the MOG-specific autoantibody levels, total IgM and IgG subclasses were markedly higher as compared to naive mice. LOU064 treatment had no effect on the MOG-specific IgM and IgG responses in serum compared to vehicle treated mice.

NF-L = NF-L concentration in serum, RatMOG EAE; assay type: in vivo, mouse; settings: 30 mg/kg b.i.d., vs vehicle
From the text: In immunized mice, vehicle or LOU064-treated, the mean NF-L level was markedly higher as compared to naive mice.

[5] = test system: neuroinflammation signature in microglia; assay: scRNA-seq analysis of brains and spinal cords of RatMOG EAE mice; assay type: in vivo, mouse; settings: LOU064 vs controls
Description: 10X Genomics Chromium raw sequencing reads were processed with Cell Ranger [Zheng, G. et al. (2017), Nat Commun 8, 14049]. All subsequent analyses were carried out in R v4.1 and Bioconductor v3.14, loosely following the guidelines in “Orchestrating single-cell analysis with Bioconductor” [Amezquita, R. A. et al (2020), Nat Methods 17, 137-145] and using the framework provided by the scuttle, scater [Davis J McCarthy et al. (2017), Bioinformatics, Vol 33, 8, 1179-1186] and scran [Lun ATL et al. (2016), F1000 Research, 5:2122;
To correct for library size and composition biases, normalization was performed by pooling cells and deconvoluting size factors, followed by a log2 transformation. […]
For each cell type, pseudobulk differential expression analysis was performed using edgeR [Robinson M D et al. (2010), Bioinformatics, 26(1), 139-140], followed by gene set enrichment analysis with fgsea [Gennady Korotkevich et al., doi: https://doi.org/10.1101/060012] and multiple gene set collection from MSigDB [Arthur Liberson et al., Bioinformatics, Vol 27, 12:1739-1740]. A neuroinflammation signature from the Human Phenotype Ontology [Kohler S. et al. (2021) Nucleic Acids Res. 49(D1):D1207-D1217. doi: 10.1093/nar/gkaa1043] was scored with UCell [Andreatta M. et al. (2021), Comput Struct Biotechnol J. 19:3796-3798] and its significance assessed with a one-tailed Mann-Whitney U test.

[6] = 52-week open label extension study in CSU subjects, safety; settings: for safety signals / safety profile: 100 mg b.i.d. open-label, interim analyses
Description: In a 52-week open label extension study to evaluate the long-term safety and tolerability of LOU064 in eligible subjects with CSU who participated in the Phase 2b study the dose used was 100 mg b.i.d.

[7] = Phase 2b dose range finding core study in CSU subjects, safety; settings: for overall tolerability / safety profile: whole dose range
Description: In a Phase 2b, randomized, double-blind, placebo-controlled trial evaluating the efficacy and safety of LOU064 over 12 weeks in patients inadequately controlled by Hi-antihistamines, with at least moderately active CSU, patients received LOU064 10 mg q.d. (once daily), 35 mg q.d., 100 mg q.d., 10 mg b.i.d. (twice daily), 25 mg b.i.d., 100 mg b.i.d., or placebo (1:1:1:1:1:1:1 ratio).
In a dose range finding study conducted in CSU subjects the following doses are being tested: 10, 35 and 100 mg q.d. as well as 10, 25 and 100 mg b.i.d. and placebo over 12 weeks.

[8] = 100 mg B.I.D., N = 100, interim cut off 31 Aug. 2020
[9] = ES, 100 mg b.i.d., N = 183, listed as remibrutinib
[10] = core study, any LOU064 dose, listed as remibrutinib

C=CC(=O)N(C)CCOc1c(N)ncnc1-c1cc(F)cc(NC(=O)c2ccc(C3CC3)cc2F)c1C [LOU064, N-(3-(6-amino-5-(2-(N-methylacrylamido)ethoxy)pyrimidin-4-yl)-5-fluoro-2-methylphenyl)-4-cyclopropyl-2-fluorobenzamide]
MOG-specific IgG2c [1]: No change was detected | MOG-specific IgM and IgG responses in serum [1]: significantly reduced | MOG-specific proliferation ([3H]-thymidine incorporation) ([2]; cells incubated with HumanMOG 48 hours): dose-dependent reduction in MOG-specific proliferation | polyclonal stimulation with anti-CD3/CD28 ([2]; lymph node cells): unchanged | Th1 and Tregs [3]: unchanged; also recorded: No changes were observed | Th17 (IL-17+) cells [3]: reduced; also recorded: significant reduction | frequencies of B-cell populations [3]: no significant changes in total B-cell populations | total CD4+ T-cell population [3]: unchanged | MOG-specific IgM and IgG responses in serum [4]: had no effect; also recorded: did not affect | mean serum NF-L level (NF-L): non-significant trend towards a lower mean NF-L level; also recorded: slightly reduced | neuroinflammation gene signature in microglia [5]: significant downregulation across most conditions; also recorded: significantly downregulated | Death [6, 8]: 0 n | Discontinued study due to an SAE(s) [6, 8]: 0 n | safety signals / safety profile [6]: No safety signal has been observed; also recorded: no safety signals have been observed; also recorded: well tolerated and with a favorable safety profile | safety signals / safety profile ([6]; listed as Remibrutinib): no new safety signals | dose-limiting liver enzyme elevations and other off-target-effects ([6]; 100 mg b.i.d. over an extended period of time): does not induce any dose-limiting liver enzyme elevations and other off-target-effects | AE Headache (PT) ([6]; 100 mg b.i.d., N = 100 interim): 6% | AE Infections and infestations (SOC) ([6]; 100 mg b.i.d., N = 100 interim): 14% | AE Skin and subcutaneous tissue disorders (SOC) ([6]; 100 mg b.i.d., N = 100 interim): 13% | AE diarrhea (PT) ([6]; 100 mg b.i.d., N = 100 interim): 4% | AE dizziness (PT) ([6]; 100 mg b.i.d., N = 100 interim): 3% | AE gastroenteritis (PT) ([6]; 100 mg b.i.d., N = 100 interim): 3% | bleeding events or events under SOC Blood and lymphatic system disorders ([6]; 100 mg b.i.d., N = 100 interim): no bleeding events | ECG findings or QT of >500 ms ([6]; ES and CS, any patient): no significant ECG findings or QT of >500 ms noted in any patient | AE Headache (PT) [6, 9]: 6.6% | AE Infections and infestations (SOC) [6, 9]: 23.0% | AE Skin and subcutaneous tissue disorders (SOC) [6, 9]: 17.5% | Discontinued study treatment due to AE(s) [6, 9]: 6 n | Patients with SAE(s) [6, 9]: 4 n | AE Skin and subcutaneous tissue disorders (SOC) ([6]; ES, 100 mg b.i.d., N=183): 32 n | Incidence of AESI bleeding ([6]; ES, 100 mg b.i.d., N=183): 4.4% | Incidence of AESI cytopenias ([6]; ES, 100 mg b.i.d., N=183): 0.5% | Incidence of AESI infections ([6]; ES, 100 mg b.i.d., N=183): 23% | deaths ([6]; ES, 100 mg b.i.d., N=183): no deaths | patients with isolated ALT>3xULN ([6]; ES, N=183, normalized within 4 weeks): 1 patient | Grade 3 creatinine elevation, patients ([7]; 10 mg q.d., Week 8, after starting a ketogenic diet): One | Grade 3 neutrophil count decrease ([7]; 35 mg q.d., Week 12): one | Grade 3 alanine transaminase elevation ([7]; 100 mg q.d., Week 8): one | deaths ([7]; core study): no deaths | laboratory findings, including blood cell counts ([7]; core study): no significant laboratory findings | AE Headache (PT) [7, 10]: 9.7% | AE Infections and infestations (SOC) [7, 10]: 24.0% | AE Skin and subcutaneous tissue disorders (SOC) [7, 10]: 16.9% | Common Terminology Criteria for AEs Grade 3 events (laboratory data) ([7]; core study, in total): three | patients with ALT>5xULN ([7]; core study, normalised on treatment): 1 patient | overall tolerability / safety profile [7]: well-tolerated across the whole dose range | overall tolerability / safety profile ([7]; listed as Remibrutinib): favorable safety profile across the whole dose range

Source: patent US20240350489A1, “LOU064 FOR TREATING MULTIPLE SCLEROSIS” (NOVARTIS AG, priority 2021, published 2024)
